# Ends that are not written are not given here. Peptide text beside a SMILES is read from it. * marks the point of attachment. Cbz = O=C(OCc1ccccc1)*; CH2F = FC*
# Columns and labels:
# Hsp90 = target: T1, Hsp90 (Homo sapiens, UniProt P07900); test: Surface plasmon resonance of immobilized biotin peptides with r-Hsp90; type: binding
# T1 construct: GST-Hsp90 (amino acids 1-732); GST (N); made in house; host or cells: E. coli
# Protocol: Wild type Survivin peptide 77 to 91 (SEQ ID NO:22) or the corresponding C84A mutant 77-91 peptide (HKKHSSGAAFLSVKK; SEQ ID NO:23) was synthesized with an N-terminal biotin and immobilized on streptavidin coated chips (SA5) purchased from Biacore Inc. (Piscataway, N.J.). Increasing concentrations (100 nM-10 μM) of purified r-Hsp90 suspended in 10 mM HEPES, 150 mM NaCl, 3 mM EDTA, 0.005% polysorbate-20, 1 mM DTT, were then injected in […] over the immobilized peptides. A constant flow rate of […] was maintained, and the dissociation phase was followed for 300 seconds. Surfaces were regenerated using […] of 1 M NaCl/50 mM NaOH after each dissociation phase. A new injection cycle was initiated only after 10 min post-regeneration to ensure complete removal of NaCl and NaOH. The collected data were analyzed using the Biaeval 3.0 software package from Biacore Inc.
# Sensorgrams (FIG. 10B) indicate binding of the Survivin peptides to Hsp90, measured by an increase in surface plasmon resonance during analyte flow over the chip surface, with the nonspecific signal from the biotin-only surface subtracted.
# [1] = target: T2, Hsp90-Survivin binding interactions (Homo sapiens, UniProt P07900, S63T); test: ELISA: Survivin peptides inhibiting Hsp90 binding to immobilized Survivin; details: 20 μg/ml peptide preincubated with Hsp90, 16 hours, 4° C.
# T2 construct: GST-Hsp90 (amino acids 1-732); GST (N); made in house; host or cells: E. coli
# Protocol: ELISA experiments were performed by immobilizing recombinant Survivin (r-Survivin) ([…]) or recombinant Hsp90 (r-Hsp90) (10 μg/ml) on plastic microtiter wells (Immulon™-2, Dynatech Laboratories, Chantilly, Va.) using bicarbonate buffer, pH 9.5 (100 μl/well) for 18 hours at 4° C. Bound protein was blocked with 3% gelatin for 1 hour at 37° C., rinsed with washing buffer (TBS pH 7.4, 0.1% Tween™, 0.1% BSA) and incubated for 1 hour at 37° C. with different concentrations of a test protein to determine if the test protein bound the immobilized protein.
# ELISA experiments were performed essentially as in Example 2 with the following variations. 20 μg/ml of each recombinant Survivin peptide (expressed in E. coli) was preincubated with Hsp90 at 2.5 mg/ml for 16 hours at 4° C. After binding and blocking of full length Survivin to wells in a microtiter plate, the preincubated mixtures of Hsp90 and Survivin peptides were added to the wells and incubated for 1 hour at 37° C. Wells were washed, incubated with primary antibody, washed again, and bound antibody was quantified as described above. Each experiment was repeated three times and the standard deviation is shown.
# HeLa cells [2] = test: Proteasome or caspase inhibitor effect on GA-mediated Survivin/XIAP degradation, Western blotting; type: cell-based, Human; details: for reversal of loss of XIAP expression caused by GA: HeLa cell extracts, GA with inhibitor
# Protocol: Extracts from HeLa cells treated with 1 μM GA for 30 hours in the presence or absence of 5 μM of the proteasome inhibitor lactacystin were analyzed for changes in Survivin or β-actin levels by Western blotting. Antibodies to actin were obtained from Sigma. […] Levels of β-actin were unaffected by treatment in this experiment.
# HeLa cell extracts were collected after exposure to the indicated concentrations of GA in the absence (None) or in the presence of the proteasome inhibitor, lactacystin or the broad spectrum caspase inhibitor, ZVAD-fink. Loss of XIAP expression in the presence of Hsp90 inhibition by GA is reversed by lactacystin but not ZVAD-fink, as indicated by Western blotting for XIAP depicted in FIG. 5C (* indicates non-specific band).
# [3] = system: HL-60 and THP-1 AML cell lines; test: MTT cell viability, short versus full length peptide; type: cell-based; details: 4×10^5 cells
# Protocol: FIGS. 29B-29D are graphs depicting killing of AML cells by Survivin peptides. FIG. 29B depicts survivin peptide activity in HL-60 cells, measured by Trypan blue exclusion. FIGS. 29C and 29D depict killing, as measured using MTT, of HL-60 (FIG. 29C) or THP-1 (FIG. 29D) cells by full length Survivin peptide (SEQ ID NO:19), Survivin peptide K79-G83 (SEQ ID NO:20), or scrambled peptide (SEQ ID NO:25 and SEQ ID NO:28).
# The activity of a shorter Survivin peptide was also tested in an AML cell line. A shorter cell permeable Survivin peptide was synthesized by fusing the third α-helix of the Antennapedia carrier sequence to the amino-terminus of the Survivin peptide sequence K79-G83 (SEQ ID NO:20). […] The scrambled control peptide ([…]; SEQ ID NO:28) was ineffective (FIGS. 29C, D). For these experiments a higher number of cells was used (4×10^5) to produce a 50% killing efficiency by full length survivin peptide.
# [4] = system: U937, K562, HL60, THP1 AML cell lines; test: MTT cell viability in AML cell lines; type: cell-based, human
# Protocol: FIG. 30 is a graph depicting killing activity of survivin K79-G83 in AML cells. The indicated human AML cell lines (U937, K562, HL60, and THP1) were incubated with scrambled (SEQ ID NO:28) or Survivin (SEQ ID NO:20) peptides and evaluated for cell viability by MTT.
# The effect of the K79-G83 Survivin peptide was characterized in more detail for anti-tumor activity in AML. The K79-L87 (SEQ ID NO:19) and K79-G83 peptides (SEQ ID NO:20) were incubated with AML cells, and cell viability was measured using MTT.
# recombinant Hsp90 = target: T3, recombinant Hsp90 (Homo sapiens, UniProt P07900, S63T); test: ELISA binding to recombinant Hsp90
# T3 construct: GST-Hsp90 (amino acids 1-732); GST (N); made in house; host or cells: E. coli
# From the text: (§1) FIG. 31 is a graph depicting Hsp90 binding by Survivin peptides, measured by ELISA. Data are the mean±S.D. of two independent experiments.
# survivin-Hsp90 = target: T4, survivin-Hsp90 (Homo sapiens, UniProt P07900, S63T); test: ELISA inhibition of recombinant survivin binding to Hsp90
# T4 construct: GST-Hsp90 (amino acids 1-732); GST (N); made in house; host or cells: E. coli
# From the text: as §1
# HeLa cells [5] = test: Apoptosis by hypodiploid DNA content, propidium iodide flow cytometry; type: cell-based, Human; details: 24 hours
# Protocol: For determination of apoptosis by hypodiploid DNA content, various tumor cell lines were incubated with increasing concentrations of the cell permeable control scrambled (SEQ ID NO:25) or Survivin peptide (SEQ ID NO:19), harvested after 24 hours (floaters plus attached cells) fixed in 70% ethanol, and stained with 10 μg/ml propidium iodide plus 100 μg/ml RNAse A and 0.05% Triton™ X-100 in PBS, pH 7.4. Cultures were analyzed for DNA content by flow cytometry. For colorimetric quantification of cell viability, an MTT assay was used. Various tumor cell lines were incubated with increasing concentrations of the cell permeable retro-inverso control scrambled P4 or the Survivin-specific P3 peptide, incubated for 24 hours at 37° C. washed twice with Bruffs Media, and 4,5-dimethylthiazol-2-yl)-2,5-diphenyltetrazolium bromide (MTT) (Sigma, St. Louis, Mo.) was added at 5 mg/ml. Decrease in cell viability was analyzed for loss of colorimetric absorption at OD405.
# HeLa cells were incubated with the indicated increasing concentrations of the cell permeable Control (scrambled) or Survivin peptide, harvested after 24 hours at 37° C., and analyzed by hypodiploid DNA content by propidium iodide staining and flow cytometry.
# HeLa cells were incubated with chemotherapeutic drugs Taxol™ (10 μM) or adriamycin (300 nM), or cell permeable control peptide or the Survivin peptide, harvested after 24 hours, and analyzed for induction of apoptosis by hypodiploid DNA content by flow cytometry.
# HeLa cells [6] = test: Stability of Hsp90 client proteins and caspase-3 proform, Western blot; type: cell-based, Human; details: increasing concentrations, 24 hours
# Protocol: To determine whether intracellular loading of the Survivin cell permeable peptide reproduced the effect of mAb 8E2 that disrupts the Survivin-Hsp90 interaction in destabilizing Survivin levels in vivo (FIG. 8), HeLa cells were loaded with the indicated increasing concentrations of cell permeable control (SEQ ID NO:25) or Survivin (SEQ ID NO:19) cell permeable peptide, harvested after 24 hours, and analyzed for stability of Hsp90 client proteins, Survivin and Akt. Polyclonal antibody to Akt was obtained from Cell Signaling Technology (Cat. No. 9272).
# [7] = system: DU145, PC3, HeLa tumor cell lines; test: MTT colorimetric viability assay, tumor cell lines; type: cell-based; details: increasing concentrations, 24 hours
# Protocol: (§2) FIGS. 22A and 22B compares the effect of P31 (SEQ ID NO:19) or P33 (SEQ ID NO:25) on apoptosis of tumor cell lines (FIG. 22A) and normal cell lines (FIG. 22B). The following tumor cell lines DU145 (prostate cancer, circles), PC3 (prostate cancer, triangles), or HeLa (cervical carcinoma, squares) were treated with the indicated increasing concentrations of P31 peptide (solid symbols) or control P33 peptide (open symbols), harvested after 24 hours, and analyzed for cell viability using an MTT colorimetric assay. For normal cell types (right panel), HFF (human foreskin fibroblasts, squares), HGF (human fibroblasts, triangles) or WS-1 (human epithelial cells, circles) were treated with P31 (solid symbols) or control scrambled peptide P33, harvested after 24 hours and analyzed for overall cell viability by MTT colorimetric assay. All cell lines were from ATCC.
# [8] = system: HFF, HGF, WS-1 normal cells; test: MTT colorimetric viability assay, normal cell types; type: cell-based, human; details: 24 hours
# Protocol: as §2
# HeLa cells [9] = test: Annexin V labeling and propidium iodide multiparametric flow cytometry; type: cell-based, Human; details: increasing concentrations, eight hour incubation, 37° C.
# Protocol: HeLa cell cultures were treated with the indicated increasing concentrations of P31 (Survivin) or P33 (Control; SEQ ID NO:25) peptides, harvested after an eight hour incubation at 37° C., and analyzed for multiparametric flow cytometry of Annexin V labeling (X-axis, a marker of apoptosis) and propidium iodide staining (Y-axis, a marker of cell death).
# PC3 cells = test: Immunoblotting of Hsp90 client proteins; type: cell-based; details: 75 and 150 μM, 8 hours
# Protocol: Survivin affects the stability and function of Hsp90 client proteins in tumor cells. PC3 cells were untreated or exposed to 75 and 150 μM concentrations of the survivin peptide (SEQ ID NO:19) (or control scrambled peptide; SEQ ID NO:25) for 8 hours and processed for immunoblotting against the Hsp90 client proteins survivin, AKT, and CDK-6. […] Conversely, the levels of Hsp90, Hsp70, and PCNA were not affected (FIG. 26A).
# HL-60 cells = test: Cell killing by trypan blue exclusion; type: cell-based
# Protocol: The expression and function of the survivin-Hsp90 pathway in acute myelogenous leukemia (AML) cell lines was analyzed. Survivin was abundantly expressed in four AML cell lines, U937, K-562, THP-1 and HL-60, by Western blotting (FIG. 29A).
compound,measurement,setting,value
"HKKHSSGAAFLSVKK (Synthetically generated peptide) [SEQ ID NO:23, C84A mutant 77-91 peptide]","on-rates, wild type versus C84A peptide",Hsp90,similar
KHSSGCAFLSVK [SEQ ID NO:3],inhibition of Hsp90-Survivin binding interactions,[1],especially effective inhibitor
"COC(=O)C[C@H](NC(=O)[C@H](C)NC(=O)[C@@H](NC(=O)OCc1ccccc1)C(C)C)C(=O)CF [ZVAD-fink, Z-Val-Ala-Asp (OMe)-CH2F] (Cbz-Val-Ala-Asp(OMe)-CH2F)",reversal of loss of XIAP expression caused by GA,HeLa cells [2],not
RQIKIWFQNRRMKWKKKHSSG (Synthetically generated peptide) [SEQ ID NO:20],reduction of cell viability (MTT),[3],considerably more active than the P31 peptide
same,"cell viability (MTT), killing of AML cell lines",[4],efficiently killed all AML cell lines tested
same,binding to recombinant Hsp90 in vitro,recombinant Hsp90,comparably bound recombinant Hsp90
same,inhibition of binding of recombinant survivin to Hsp90,survivin-Hsp90,inhibited the binding of recombinant survivin to Hsp90 in a dose-dependent manner
"RQIKIWFQNRRMKWKKSKLACFSHG (Synthetically generated peptide) [P33, reference compound]",cell population with hypodiploid DNA content (apoptotic),"HeLa cells [5]; peptides, comparison with chemotherapeutic drugs",not
same,levels of Survivin and Akt,HeLa cells [6],ineffective
same,cell death in cancer cell lines (MTT),[7],did not induce cell death in cancer or normal cell types
same,cell death in normal cell types (MTT),[8],did not induce cell death in cancer or normal cell types
same,induction of apoptosis (Annexin V / propidium iodide),HeLa cells [9],ineffective
same,"Hsp90 client proteins (survivin, Akt, CDK-4, CDK-6)",PC3 cells,not
same,cell killing (trypan blue exclusion),HL-60 cells,ineffective
same,"cell viability (MTT), killing of AML cell lines",[4],no effect
CC(=O)N[C@@H](CSC(=O)[C@]1([C@@H](O)C(C)C)NC(=O)[C@H](C)[C@@H]1O)C(=O)O [lactacystin],Survivin levels following lactacystin and GA treatment,"HeLa cells [2]; 1 μM GA for 30 hours, 5 μM lactacystin",at or above the levels of untreated cells
same,reversal of loss of XIAP expression caused by GA,HeLa cells [2],reversed
"RQIKIWFQNRRMKWKKSGKHS (Synthetically generated peptide) [SEQ ID NO:28, scrambled control peptide for K79-G83, reference compound]",reduction of cell viability (MTT),[3],ineffective
same,"cell viability (MTT), killing of AML cell lines",[4],no effect
COc1cccc2c1C(=O)c1c(O)c3c(c(O)c1C2=O)C[C@@](O)(C(=O)CO)C[C@@H]3O[C@H]1C[C@H](N)[C@H](O)[C@H](C)O1 [adriamycin],loss of cell viability by hypodiploid DNA content,HeLa cells [5]; 300 nM,does not result in significant loss of cell viability
"CC(=O)O[C@H]1C(=O)[C@@]2(C)[C@H]([C@H](OC(=O)c3ccccc3)[C@]3(O)C[C@H](OC(=O)[C@H](O)[C@@H](NC(=O)c4ccccc4)c4ccccc4)C(C)=C1C3(C)C)[C@]1(OC(C)=O)CO[C@@H]1C[C@@H]2O [Taxol, paclitaxel]",loss of cell viability by hypodiploid DNA content,HeLa cells [5]; 10 μM,does not result in significant loss of cell viability

# From patent US8420777B2, “Compounds that inhibit Hsp90 protein-protein interactions with IAP proteins” (University of Massachusetts, priority 2004, dated 2013)
